In PubChem BioAssay AID179 (DTP/NCI, 2004):
Values joined by “and” are separate entries in the source; they are usually repeats but may differ in a detail not shown here. Equal entries are not always repeated. Active and inactive are the calls of the source.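 How the source made its calls: active means compounds giving half or more protection of infected cells from virus-caused growth loss, again on retest; inactive means the rest.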

System: CEM cells HIV-1 protection, formazan growth assay
Test: NCI AIDS Antiviral Assay
Conditions: for IC50: measured here: growth of uninfected CEM cells
In short: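 Steps: treat uninfected and HIV-1-infected human CEM cells at five drug levels; quantify growth by soluble formazan; retest any compound reaching 50% protection; classify actives from the retest.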

Compound	outcome	EC50	IC50
COc1ccc2c(c1)CCC1=C2C=C[P+]1(C)C	inactive	–	–
CN1CCOC(c2ccccc2)O1 (centres undefined)	–	> 251 µM	> 251 µM
O=S1(=O)CCN2OCC1C2c1cccc2ccccc12 (centres undefined)	inactive	–	–
CC1=C(C(=O)Nc2ccc([N+](=O)[O-])cc2)C(c2ccccc2O)C(C(=O)Nc2ccc([N+](=O)[O-])cc2)=C(C)N1	–	> 49 µM	30.9 µM
COc1cccc(/C=N/[N-]C(=O)c2ccncc2)c1[O-].[OH3+].[Pd+2]	–	> 16.6 µM	> 16.6 µM
CC=C=CCN(C)Cc1ccccc1	–	> 324 µM	> 324 µM
CCOC(=O)C(NC(=O)Nc1ccccc1)(Nc1cccc(Cl)c1)C(F)(F)F (centres undefined)	–	> 200 µM	195 µM
COC1(C)C(=O)N2C1N(C(=O)OCc1ccccc1)CC2(C)C (centres undefined)	–	> 251 µM	> 251 µM
CO/N=C1/C(n2[nH]c(=O)n(-c3ccccc3)c2=O)C2C=CC1n1c(=O)n(-c3ccccc3)c(=O)n12 (centres undefined)	–	> 200 µM	> 200 µM
O=C(/C=C/c1ccc2c(c1)OCO2)c1ccccc1	–	> 200 µM	7.08 µM and 11.2 µM
COC(=O)C(Cc1cn(C(C)n2cc(CC(NC(C)=O)C(=O)OC)c3ccccc32)c2ccccc12)NC(C)=O (centres undefined)	–	> 81.3 µM	74.1 µM
Cc1cn(C2OCC(CO)C2O)c(=O)[nH]c1=O (centres undefined)	–	> 200 µM	> 200 µM
CN1C(=O)c2ccccc2C2(O)c3ccccc3-c3ccccc3C12O (centres undefined)	–	> 20 µM	4.47 µM
COC(=O)c1cc(C(=Cc2c(F)c(F)c(F)c(F)c2F)c2cc(Cl)c(OC)c(C(=O)OC)c2)cc(Cl)c1OC	–	> 17.4 µM	> 17.4 µM
O=C1C(=O)C(c2ccccc2)S(=O)(=O)C1c1ccccc1 (centres undefined)	inactive	–	–
O=C1C(=O)c2ccccc2C(O)=C1CCCC1CCC2CCCCC2C1 (centres undefined)	–	> 200 µM	8.32 µM
COc1ccc(S(=O)Cc2ccc(C(=O)O)cc2[N+](=O)[O-])cc1 (centres undefined)	–	> 741 µM	631 µM
COc1c(I)c(OC)c2c(c1I)O[C@@H]1OCC[C@H]21	–	> 501 µM	240 µM
Cc1ccc2c(c1)SSc1ccc(C)cc1SS2	–	> 200 µM	110 µM
CCOC(=O)/C=C/C(=O)O/C=C/[N+](=O)[O-]	–	182 µM	> 200 µM
C=C1C(C2(C)C=CC(=O)OC3(C)COC(=O)CC32)C(OC=O)C(OC(=O)C(O)C(C)CC)C2(C)C(c3ccoc3)CC(OC(C)=O)C12O (centres undefined)	inactive	–	–

Compound	outcome	EC50	IC50
CC1OS(=O)(=O)CS(=O)(=O)OC1C (centres undefined)	–	> 1070 µM	1020 µM
COC(=O)/C=C\C(C#N)(C#N)N=Cc1cc(Br)cs1	–	> 2 µM	0.676 µM
C1=Cc2nc1c(-c1ccccc1)c1ccc([nH]1)c(-c1ccccc1)c1nc(c(-c3ccccc3)c3ccc([nH]3)c2-c2ccccc2)C=C1	–	> 2.34 µM	> 2.34 µM
CC(=O)C1=C(N=[N+]=[N-])c2cccc3cccc(c23)C1=O	inactive	–	–
Cc1ccc(/C=N/NS(=O)(=O)c2ccccc2)cc1	inactive	–	–
CCOC(=O)c1c(NC(=O)c2ccccc2)sc2c1CCC2	–	> 151 µM	> 151 µM
Cc1ccc(/C=C2/N=C(N/N=C\C(O)C(O)C(O)C(O)CO)NC2=O)cc1 (centres undefined)	–	> 200 µM	123 µM and > 200 µM and 132 µM
C[C@H](OC(=O)/C=C/c1ccc(O)c(O)c1)[C@H](C)OC(=O)/C=C/c1ccc(O)c(O)c1	–	> 200 µM	3.47 µM
Cc1c2[nH]c3ccc(Br)cc3c2c(C)c2[nH]ccc(=O)c12	–	> 3.31 µM	> 3.31 µM
C/C(CC(=O)CCCC(=O)Nc1ccc(Cl)cc1Cl)=N/NC(=O)CC#N	–	> 18.2 µM	> 18.2 µM
O=C(NNc1ccccc1)C(O)C(O)C(O)C(O)C(O)CO (centres undefined)	inactive	–	–
Cc1cc(C)nc(NS(=O)(=O)c2ccc(NC(=O)c3ccc4nc5ccccc5c(Nc5ccc(S(=O)(=O)Nc6nc(C)cc(C)n6)cc5)c4c3)cc2)n1	–	> 200 µM	29.5 µM
CCN(CC)CCO/N=C1\CC[C@H]2[C@@H]3CCc4cc(OC)ccc4[C@H]3CC[C@]12C	–	> 20 µM	2.69 µM
C=CCc1cccc2cc(C(=O)Nc3nc(C45CC6CC(CC(C6)C4)C5)cs3)c(=O)oc12	–	> 100 µM	> 100 µM
COC(=O)CN1C(=O)C2(C(=O)OC)OC1(c1ccc([N+](=O)[O-])cc1)C1C(=O)N(c3ccccc3)C(=O)C12 (centres undefined)	–	> 200 µM	> 200 µM
N/C(=N\N=C(/N)C(F)(F)F)C(F)(F)F	–	> 200 µM	> 200 µM
O=S(=O)(O)C1=C2Sc3ccccc3N=C2c2ccccc2C1	–	> 141 µM	7.94 µM
NC1CC(=O)c2csc(Br)c21 (centres undefined)	–	> 57.5 µM	11 µM
CC1=NN(C(=O)CC(=O)Nc2cccc(C)c2)C(=O)C1N=Nc1ccc(C(=O)O)cc1 (centres undefined)	–	> 200 µM	28.2 µM
CCN(CC)C(=S)Nc1ccc(-c2cc3ccc(O)cc3oc2=O)cc1	–	> 200 µM	14.1 µM
O=C1NC2CCC(C2)C1c1ccccc1 (centres undefined)	inactive	–	–

Compound	outcome	EC50	IC50
N/N=C1\C(=O)N(C2CCCCC2)C(=O)C1C(=O)NC1CCCCC1 (centres undefined)	inactive	–	–
Cc1cc2c(C)nn(Cc3ccccc3Cl)c2c(C#N)c1C	–	> 23.4 µM	> 23.4 µM
CC(=O)N1C(=O)CC2(N=C(C)CC2=O)c2ccccc21 (centres undefined)	–	> 200 µM	> 200 µM
COc1ccc(CN2COc3c(cc(Cl)c4cccnc34)C2)cc1	–	> 200 µM	1.55 µM
CSc1ncnc2c1ncn2C1CC(Oc2ccc(C)cc2)C(COc2ccc(C)cc2)O1 (centres undefined)	–	> 200 µM	30.9 µM
O=S(=O)(O)CCCCBr	–	> 200 µM	> 200 µM
COC(=O)C1OS(=O)(=O)OC1C(=O)OC (centres undefined)	–	> 200 µM	> 200 µM
CC(=O)O[C@H]1CCC2[C@@H]3CCC4Nc5c(cnn5-c5ccccc5)C[C@]4(C)C3CC[C@@]21C (some centres undefined)	inactive	–	–
COC1OC(COC(=O)NCCCCC(=O)C(F)(F)C(F)(F)C(F)(F)C(F)(F)C(F)(F)C(F)(F)C(F)(F)F)C(O)C(O)C1O (centres undefined)	–	> 200 µM	2.95 µM and 6.03 µM
CC(NP(=O)(c1ccccc1)c1ccccc1)c1ccccc1 (centres undefined)	–	> 200 µM	> 200 µM
COc1cc(/C=N/NC(=O)CC(=O)N(C(=O)c2ccc(Cl)cc2)c2ccc(C)cc2)ccc1O	–	> 195 µM	> 195 µM
Nc1nccc(CCc2ccccc2)n1	–	> 36.3 µM	> 36.3 µM
COCCOC(=O)C1=C(O)c2ccccc2S(=O)(=O)N1C	–	> 794 µM	562 µM
O=C(CC(=O)c1ccc([N+](=O)[O-])cc1)C(=O)Nc1nccs1	–	> 186 µM	155 µM
O=C(S)C(=O)Cc1nnn(-c2ccccc2)c1-c1ccccc1	–	> 245 µM	> 245 µM
COC1=C(C(=O)O)P(C)(=O)CC1 (centres undefined)	–	> 214 µM	> 214 µM
NC(=S)N/N=C1\CCCCc2ccccc21	inactive	–	–
CCC[CH2][Sn]([CH2]CCC)=[N]S(=O)(=O)c1ccc(Cl)c(C)c1	–	> 0.2 µM	0.0851 µM
C[C@]12CCCC(=O)C1(O)C[C@H](C(=O)O)CC2 (some centres undefined)	inactive	–	–
CO/N=C(/C(=O)N(C(=O)/C(=N/OC)c1csc(NC(c2ccccc2)(c2ccccc2)c2ccccc2)n1)n1cnn(CC(=O)OC(C)(C)C)c1=O)c1csc(NC(c2ccccc2)(c2ccccc2)c2ccccc2)n1	–	> 200 µM	174 µM
O=C1c2ccccc2CC12Cc1cc3c(cc1C2=O)CCC3 (centres undefined)	–	> 200 µM	> 200 µM
